Assay results published in US10017527B2, “KLK4 inhibitors” (Universiteit Antwerpen, priority 2014, dated 2018).

How the values were obtained:
Assay type in all cases: biochemical
tPA (recombinant) = target: T1, tPA (recombinant) (Homo sapiens, UniProt P00750); assay: tPA inhibition, chromogenic substrate Biophen CS-05(88)
T1 construct: purchased Nodia
From the text: (§1) The IC50 values For KLK1, KLK2 and KLK8 were obtained in a similar way. For plasmin, tPA, thrombin, Fxa, HNE, Plasma kallikrein Chromogenic substrates were used (absorption: 405 nm). (KLK2, KLK4, KLK8 were supplied by Viktor Magdolen TUMunich (TUM)).

FXa = target: T2, FXa (Homo sapiens, UniProt P00742); assay: FXa inhibition, chromogenic substrate Biophen CS-11(32)
T2 construct: purchased Nodia
From the text: as §1

KLK8 (human) = target: T3, KLK8 (human) (Homo sapiens, UniProt O60259); assay: KLK8 inhibition, fluorogenic substrate Boc-Val-Pro-Arg-AMC
T3 construct: purchased Viktor Magdolen, TUMunich (TUM), supplied by an academic laboratory
T3 sequence (O60259 33-260): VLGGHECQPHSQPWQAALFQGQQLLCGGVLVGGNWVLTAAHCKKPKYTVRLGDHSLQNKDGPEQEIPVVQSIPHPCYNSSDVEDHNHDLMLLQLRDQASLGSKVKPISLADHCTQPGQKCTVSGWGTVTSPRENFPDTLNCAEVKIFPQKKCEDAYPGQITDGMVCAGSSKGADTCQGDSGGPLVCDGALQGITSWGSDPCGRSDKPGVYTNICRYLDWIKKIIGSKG
From the text: as §1

Plasmine (human plasma) = target: T4, Plasmine (human plasma) (Homo sapiens, UniProt P00747); assay: Plasmin inhibition, chromogenic substrate Biophen CS-21(66)
T4 construct: purchased Sigma-Aldrich; host or cells: human plasma
From the text: as §1

Matriptase = target: T5, Matriptase (Homo sapiens, UniProt Q9Y5Y6); assay: Matriptase inhibition
T5 sequence (Q9Y5Y6 1-855): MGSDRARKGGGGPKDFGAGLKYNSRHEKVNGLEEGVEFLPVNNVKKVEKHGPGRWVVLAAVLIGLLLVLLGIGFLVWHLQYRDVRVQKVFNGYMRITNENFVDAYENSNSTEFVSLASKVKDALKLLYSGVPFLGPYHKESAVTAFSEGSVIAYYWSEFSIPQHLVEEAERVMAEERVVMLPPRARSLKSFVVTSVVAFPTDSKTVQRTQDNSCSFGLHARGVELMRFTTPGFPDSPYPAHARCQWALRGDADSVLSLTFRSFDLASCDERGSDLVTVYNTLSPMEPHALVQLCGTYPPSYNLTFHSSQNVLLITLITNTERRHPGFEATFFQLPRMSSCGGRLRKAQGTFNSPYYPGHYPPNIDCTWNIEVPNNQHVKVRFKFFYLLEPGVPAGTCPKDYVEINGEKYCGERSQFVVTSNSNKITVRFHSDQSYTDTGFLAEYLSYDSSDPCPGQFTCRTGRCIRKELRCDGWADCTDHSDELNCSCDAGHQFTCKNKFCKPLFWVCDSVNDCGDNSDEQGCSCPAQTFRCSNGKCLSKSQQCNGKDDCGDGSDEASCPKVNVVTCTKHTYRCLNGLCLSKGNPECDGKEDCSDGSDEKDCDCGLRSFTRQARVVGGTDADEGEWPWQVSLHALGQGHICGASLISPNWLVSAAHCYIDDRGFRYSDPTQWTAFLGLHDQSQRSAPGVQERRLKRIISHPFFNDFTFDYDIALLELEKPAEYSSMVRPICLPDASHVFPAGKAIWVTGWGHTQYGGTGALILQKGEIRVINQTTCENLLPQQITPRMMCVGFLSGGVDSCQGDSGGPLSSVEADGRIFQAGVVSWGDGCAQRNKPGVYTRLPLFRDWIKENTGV

KLK4 [1] = target: T6, KLK4 (Homo sapiens, UniProt Q9Y5K2); assay: KLK4 inactivation kinetics from progress curves (kobs vs inhibitor concentration); details: for Irreversible (KLK4): irreversible binding to KLK4, Yes/No
T6 construct: purchased Viktor Magdolen (TUM), supplied by an academic laboratory
Method: (§2) Inhibitor stock solutions were prepared in DMSO and stored at −20° C. Because the compounds described in this paper completely inactivate KLK4 following pseudo first-order kinetics, the IC50 value is inversely correlated with the second-order rate constant of inactivation. For a simple pseudo first-order inactivation process, the activity after incubation with inhibitor (vi) varies with the inhibitor concentration (i), as described in the following equation: vi=v0×e^−k t, where vo is the activity in absence of inhibitor, k is the second-order rate constant of inactivation, and t is the time. The inactivation rate constant was determined from the time course of inhibition.
The inhibitor was mixed with the substrate (250 μM final concentration), and the buffer solution with the enzyme was added at the time zero. […] The progress curves show the absorbance of aminomethylcoumarine produced as a function of time. Initially, no inhibitor is bound to the enzyme, and the tangent to the progress curve (dA/dt) is proportional to the concentration of the free enzyme. The concentration of free enzyme decreases over time due to the kinetics of inhibitor binding, as described above. Progress curves were recorded in pseudo first-order conditions ([I]0>>[E]0) and with less than 10% conversion of the substrate during the entire time course. In these conditions, dA/dt decreases exponentially with time. The progress curves were fitted with the integrated rate equation to yield a value for kobs, a pseudofirst-order rate constant At=v0[1−e^−k^obs^t]/kobs+A0 where At=absorbance at time t, A0=absorbance at time zero, and v0=uninhibited initial rate.
The apparent second-order rate constant (kapp) was calculated from the slope of the linear part of the plot of kobs versus the inhibitor concentration ([I]0). In case of competition between the inhibitor and the substrate, kapp is smaller than the “real” second order rate constant k discussed above because a certain fraction of the enzyme is present as an enzyme-substrate complex. kapp depends on the substrate concentration used in the experiment, as described by Lambeir et al. (Lambeir, Borloo et al. 1996).

KLK1 (human) = target: T7, KLK1 (human) (Homo sapiens, UniProt P06870); assay: KLK1 inhibition, fluorogenic substrate H-Pro-Phe-Arg-AMC
T7 construct: purchased Prospec
From the text: as §1

AcHE = AcHE (Homo sapiens, UniProt P22303); assay: AcHE inhibition
[2] = target: T8, Neurtophil Elastase(human) (Homo sapiens, UniProt P08246); assay: Neutrophil elastase inhibition, chromogenic substrate MeOSuc-Ala-Ala-Pro-Val-pNA
T8 construct: purchased Enzo-life sciences
T8 sequence (P08246 30-267): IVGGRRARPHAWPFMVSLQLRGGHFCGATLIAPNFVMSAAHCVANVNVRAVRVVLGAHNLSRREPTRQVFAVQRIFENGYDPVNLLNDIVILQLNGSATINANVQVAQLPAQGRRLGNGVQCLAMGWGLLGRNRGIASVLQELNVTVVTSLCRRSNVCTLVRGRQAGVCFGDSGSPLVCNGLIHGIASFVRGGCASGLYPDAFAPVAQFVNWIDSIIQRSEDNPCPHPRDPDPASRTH
From the text: as §1

Thrombine (human plasma) = target: T9, Thrombine (human plasma) (Homo sapiens, UniProt P00734); assay: Thrombin inhibition, chromogenic substrate Biophen CS-21(66)
T9 construct: purchased Sigma-Aldrich; host or cells: human plasma

KLK2 (human) = target: T10, KLK2 (human) (Homo sapiens, UniProt P20151); assay: KLK2 inhibition, fluorogenic substrate H-Pro-Phe-Arg-AMC
T10 construct: purchased Viktor Magdolen, TUMunich (TUM), supplied by an academic laboratory
From the text: as §1

KLK4 [3] = target: T6, KLK4; assay: KLK4 enzymatic inhibition, fluorogenic substrate Boc-Val-Pro-Arg-AMC
Method: The substrate was obtained form Bachem and the enzyme was provided by Viktor Magdolen (TUM). The reaction was monitored with an excitation wavelength of 355 nm and emission wavelength of 460 nm. The initial rate was determined between 2500000 and 4500000 mRFU/min. The reaction mixture contained 25 μM substrate and approximately 1 mU of enzyme in 145 μL of buffer in a final volume of […]. A 50 mM Tris buffer, pH 8.3, was used. From each inhibitor concentration, 5 μL was added, obtaining a final concentration from 0 to 250 μM in a total volume of 0.2 mL. Activity measurements were routinely performed in duplicate. […] IC50 values were obtained by fitting the data with the four-parameter logistics equation using Grafit 7.
[formula] where s=slope factor, v=rate, I0=inhibitor concentration, and range=the fitted uninhibited value minus the background. The equation assumes they falls with increasing x.
as §2

uPA (recombinant) = target: T11, uPA (recombinant) (Homo sapiens, UniProt P00749); assay: uPA inhibition, chromogenic substrate Biophen CS-61(44)
T11 construct: purchased Nodia

PlasmaKLK (human plasma) = target: T12, PlasmaKLK (human plasma) (Homo sapiens, UniProt P03952); assay: Plasma kallikrein inhibition, chromogenic substrate Biophen CS-31(02)
T12 construct: purchased Sigma-Aldrich; host or cells: human plasma
From the text: as §1

T12 sequence (P03952 391-638 limits assumed): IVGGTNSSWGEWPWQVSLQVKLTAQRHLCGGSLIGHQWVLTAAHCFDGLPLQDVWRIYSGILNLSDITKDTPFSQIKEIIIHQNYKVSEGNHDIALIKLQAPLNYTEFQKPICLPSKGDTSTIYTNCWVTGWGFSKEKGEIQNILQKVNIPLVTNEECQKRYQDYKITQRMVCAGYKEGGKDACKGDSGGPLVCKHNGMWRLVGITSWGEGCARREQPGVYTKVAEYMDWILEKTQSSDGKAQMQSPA
T12 sequence (P03952 20-390 partner limits assumed): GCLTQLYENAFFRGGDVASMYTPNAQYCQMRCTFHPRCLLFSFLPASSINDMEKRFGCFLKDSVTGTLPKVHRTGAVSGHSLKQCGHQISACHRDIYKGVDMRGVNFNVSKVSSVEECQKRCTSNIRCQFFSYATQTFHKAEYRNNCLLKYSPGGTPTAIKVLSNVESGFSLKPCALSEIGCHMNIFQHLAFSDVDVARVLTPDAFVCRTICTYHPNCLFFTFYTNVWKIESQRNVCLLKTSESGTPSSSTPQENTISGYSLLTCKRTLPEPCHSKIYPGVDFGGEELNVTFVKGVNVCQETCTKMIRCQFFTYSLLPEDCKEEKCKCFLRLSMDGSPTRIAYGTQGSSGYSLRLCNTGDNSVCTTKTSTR
AcHE, sequence (P22303 32-614): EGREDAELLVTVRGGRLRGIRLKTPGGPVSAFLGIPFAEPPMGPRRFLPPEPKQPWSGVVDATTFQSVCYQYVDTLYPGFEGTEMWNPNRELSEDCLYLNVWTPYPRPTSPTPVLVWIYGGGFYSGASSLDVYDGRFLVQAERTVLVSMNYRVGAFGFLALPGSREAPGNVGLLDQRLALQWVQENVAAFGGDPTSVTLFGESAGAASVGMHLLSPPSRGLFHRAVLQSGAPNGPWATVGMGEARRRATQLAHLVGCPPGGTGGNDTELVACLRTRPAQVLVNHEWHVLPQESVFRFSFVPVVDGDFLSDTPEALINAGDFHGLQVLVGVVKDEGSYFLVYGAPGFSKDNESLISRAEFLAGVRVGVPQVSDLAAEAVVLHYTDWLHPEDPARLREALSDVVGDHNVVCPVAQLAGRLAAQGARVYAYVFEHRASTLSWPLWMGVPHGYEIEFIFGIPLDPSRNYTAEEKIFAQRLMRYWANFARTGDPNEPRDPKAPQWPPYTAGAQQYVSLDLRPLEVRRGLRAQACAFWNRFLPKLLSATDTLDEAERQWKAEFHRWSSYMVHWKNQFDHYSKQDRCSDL
T10 sequence (P20151 25-261): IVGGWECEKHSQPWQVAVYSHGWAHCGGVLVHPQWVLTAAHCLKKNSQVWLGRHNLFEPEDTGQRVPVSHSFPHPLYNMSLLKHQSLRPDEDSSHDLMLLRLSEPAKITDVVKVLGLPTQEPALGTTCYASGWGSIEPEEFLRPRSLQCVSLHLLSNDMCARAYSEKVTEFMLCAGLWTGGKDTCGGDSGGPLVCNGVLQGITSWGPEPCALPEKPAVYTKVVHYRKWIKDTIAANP
T6 sequence (Q9Y5K2 31-254): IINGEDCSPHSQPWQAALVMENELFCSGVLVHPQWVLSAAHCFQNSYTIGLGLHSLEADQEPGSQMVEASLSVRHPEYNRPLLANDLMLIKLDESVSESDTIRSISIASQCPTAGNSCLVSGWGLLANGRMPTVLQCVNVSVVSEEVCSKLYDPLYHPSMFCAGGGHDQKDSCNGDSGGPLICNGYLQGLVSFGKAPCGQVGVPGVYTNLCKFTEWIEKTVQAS
T2 sequence (P00742 235-488 limits assumed): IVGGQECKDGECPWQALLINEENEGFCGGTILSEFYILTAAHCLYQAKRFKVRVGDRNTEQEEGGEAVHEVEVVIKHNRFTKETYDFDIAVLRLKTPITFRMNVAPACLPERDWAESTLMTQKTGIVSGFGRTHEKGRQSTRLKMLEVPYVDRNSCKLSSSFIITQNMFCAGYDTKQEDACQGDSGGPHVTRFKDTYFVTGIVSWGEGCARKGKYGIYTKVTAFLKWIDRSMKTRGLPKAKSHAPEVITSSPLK
T2 sequence (P00742 41-179 partner limits assumed): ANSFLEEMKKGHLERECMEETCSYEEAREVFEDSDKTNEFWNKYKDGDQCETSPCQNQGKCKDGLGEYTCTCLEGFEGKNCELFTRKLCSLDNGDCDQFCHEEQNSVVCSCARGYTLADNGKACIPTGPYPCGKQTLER
T1 sequence (P00750 36-562, species assumed): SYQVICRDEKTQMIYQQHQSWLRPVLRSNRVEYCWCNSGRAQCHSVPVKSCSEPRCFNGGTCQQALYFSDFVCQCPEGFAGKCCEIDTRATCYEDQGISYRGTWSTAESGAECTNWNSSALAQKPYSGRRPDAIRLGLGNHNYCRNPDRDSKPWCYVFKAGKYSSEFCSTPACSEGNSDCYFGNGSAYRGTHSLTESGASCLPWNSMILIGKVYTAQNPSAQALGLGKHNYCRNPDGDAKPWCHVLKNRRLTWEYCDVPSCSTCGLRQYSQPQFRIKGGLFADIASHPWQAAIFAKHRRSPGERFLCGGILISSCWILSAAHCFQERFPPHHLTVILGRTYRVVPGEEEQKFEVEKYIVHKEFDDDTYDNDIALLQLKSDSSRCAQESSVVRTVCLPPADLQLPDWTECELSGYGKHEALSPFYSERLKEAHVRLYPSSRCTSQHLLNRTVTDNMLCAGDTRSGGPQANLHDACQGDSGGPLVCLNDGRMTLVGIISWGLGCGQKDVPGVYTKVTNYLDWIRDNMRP
T7 sequence (P06870 25-262): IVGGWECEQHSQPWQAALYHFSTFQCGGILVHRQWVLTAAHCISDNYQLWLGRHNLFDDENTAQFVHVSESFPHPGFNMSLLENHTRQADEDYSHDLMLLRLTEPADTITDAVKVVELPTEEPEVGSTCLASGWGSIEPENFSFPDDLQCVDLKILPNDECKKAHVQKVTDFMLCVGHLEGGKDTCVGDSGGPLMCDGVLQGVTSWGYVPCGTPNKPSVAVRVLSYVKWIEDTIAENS
T4 sequence (P00747 581-810 limits assumed): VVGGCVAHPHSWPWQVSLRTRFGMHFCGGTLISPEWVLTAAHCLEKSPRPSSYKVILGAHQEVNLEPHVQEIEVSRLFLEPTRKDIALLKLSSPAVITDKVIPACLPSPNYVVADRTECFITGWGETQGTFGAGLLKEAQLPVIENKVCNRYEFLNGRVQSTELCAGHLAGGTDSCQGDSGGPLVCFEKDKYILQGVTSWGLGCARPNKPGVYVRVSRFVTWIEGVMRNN
T4 sequence (P00747 98-580 partner limits assumed): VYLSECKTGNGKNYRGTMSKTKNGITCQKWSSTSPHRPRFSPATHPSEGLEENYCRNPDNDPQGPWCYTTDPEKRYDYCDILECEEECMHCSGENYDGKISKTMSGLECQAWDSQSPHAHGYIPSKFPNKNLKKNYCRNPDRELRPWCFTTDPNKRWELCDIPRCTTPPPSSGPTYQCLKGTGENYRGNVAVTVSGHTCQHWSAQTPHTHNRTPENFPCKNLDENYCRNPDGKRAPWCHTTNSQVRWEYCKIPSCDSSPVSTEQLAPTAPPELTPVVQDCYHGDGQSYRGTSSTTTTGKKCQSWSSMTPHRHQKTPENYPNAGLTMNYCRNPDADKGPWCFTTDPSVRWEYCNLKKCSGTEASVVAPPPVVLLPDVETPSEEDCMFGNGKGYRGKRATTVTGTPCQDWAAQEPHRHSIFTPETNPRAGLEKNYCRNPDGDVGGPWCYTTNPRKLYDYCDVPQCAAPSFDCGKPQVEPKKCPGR

Compound	IC50 (tPA (recombinant)) [µM]	IC50 (FXa) [µM]	IC50 (KLK8 (human)) [µM]	IC50 (Plasmine (human plasma)) [µM]	IC50 (Matriptase) [µM]	binding mechanism against KLK4 (KLK4 [1])	IC50 (KLK1 (human)) [µM]	IC50 (AcHE) [µM]	IC50 [2] [µM]	IC50 (Thrombine (human plasma)) [µM]	IC50 (KLK2 (human)) [µM]	IC50 (KLK4 [3]) [µM]	IC50 (uPA (recombinant)) [µM]	IC50 (PlasmaKLK (human plasma)) [µM]	kapp KLK4 (KLK4 [1]; apparent second-order rate constant, substrate 250 μM) [M⁻¹ s⁻¹]	Irreversible (KLK4) (KLK4 [1])
N=C(N)Nc1ccc(C(NC(=O)OCc2ccccc2)P(=O)(Oc2ccccc2)Oc2ccccc2)cc1 (stereo not drawn) [Compound 5a, benzyl (diphenoxyphosphoryl)(4-guanidinophenyl)methylcarbamate 2,2,2-trifluoroacetate, reference compound]	> 250	2.5 to 10	1 to 2.5	2.5 to 10	2.5 to 10	reversible	0.1 to 1	10 to 250	10 to 250	> 250	< 0.1	< 0.1	2.5 to 10	2.5 to 10		
C#CCOCCOCCOC(=O)NC(c1ccc(NC(=N)N)cc1)P(=O)(Oc1ccccc1)Oc1ccccc1.O=C(O)C(F)(F)F (stereo not drawn) [Compound 27, 2-(2-(prop-2-yn-1-yloxy)ethoxy)ethyl ((diphenoxyphosphoryl)(4-guanidinophenyl)methyl)carbamate 2,2,2-trifluoroacetate]	> 250	10 to 250	10 to 250		2.5 to 10		2.5 to 10	10 to 250	2.5 to 10	> 250	1 to 2.5	< 0.1	2.5 to 10	10 to 250	16000	Yes/
N=C(N)Nc1ccc(CC(NC(=O)OCc2ccccc2)P(=O)(Oc2ccccc2)Oc2ccccc2)cc1 (stereo not drawn) [UPA1, reference compound]	10 to 250	10 to 250	< 0.1	2.5 to 10	0.1 to 1	reversible	2.5 to 10	10 to 250	10 to 250	1 to 2.5	< 0.1	< 0.1		2.5 to 10		No
